Experimental findings from patent US20190225652A1, “GENERATION OF PEPTIDES” (Hexima Limited, priority 2015, published 2019) are described below.

Assay [1] concerns rOaAEP1b, rOaAEP3, rOaAEP4 and rOaAEP5. Briefly: Cyclization assay with rOaAEP1b, rOaAEP3, rOaAEP4 and rOaAEP5 (MALDI/ESI MS). As to conditions: peptides with added AEP recognition residues, 280 μM, enzymes 19.7 μg mL^−1 total protein, MS. In kind it is biochemical, Oldenlandia affinis. How it is done:
Linear target peptides (280 μM, unless otherwise indicated) were incubated with rOaAEP1b, rOaAEP3, rOaAEP4 or rOaAEP5 (total protein concentration as indicated in the description of figures) in activity buffer (50 mM sodium acetate, 50 mM NaCl, 1 mM ethylenediaminetetraacetic acid [EDTA], 0.5 μM Tris(2-carboxyethyl)phosphine hydrochloride [TCEP], pH 5). The reaction was allowed to proceed for up to 22 hours at room temperature and was analysed by matrix-assisted laser desorption/ionization mass spectrometry (MALDI MS), high performance liquid chromatography (HPLC) or nuclear magnetic resonance (NMR) as appropriate.
Cyclization or inter-molecular ligation of linear target peptides was monitored by MALDI or ESI MS. In both cases, the reaction mixture (5-50 μL) was de-salted using C18 zip tips (Millipore) and eluted in 4 μL 50-75% v/v acetonitrile, 0.1% v/v trifluoroacetic acid (TFA).
For MALDI MS, a saturated MALDI matrix solution (α-cyano-4-hyroxycinnamic acid, CHCA, Bruker) prepared in 95% v/v acetonitrile, 0.1% v/v TFA was diluted 1:22 such that the final matrix solution comprised 90% v/v acetonitrile, 0.1% v/v TFA and 1 mM NH4H2PO4. Eluted samples were mixed 1:4 with the MALDI matrix, spotted onto a MALDI plate and analyzed by an Ultraflex III TOF/TOF (Bruker) in positive reflector mode. Data were analyzed using the flexAnalysis program (Bruker).
For ESI MS, 96 μl of 75% v/v acetonitrile, 01% v/v TFA was added to the de-salted sample. The sample was then injected into a MicroTOF Q (Bruker) and data was collected in positive ionisation mode. The mass of ligated or cyclized product was determined by charge deconvolution using the Compass DataAnalysis program (Bruker).
The ability of activated AEPs (rOaAEP1b, rOaAEP3, rOaAEP4 and rOaAEP5) to cyclize peptide substrates structurally unrelated to cyclotides was tested in the cyclization assay described in the Materials and Methods. The anti-malarial peptide R1 (Harris et al. (2009) J Biol Chem 284(14):9361-9371; Harris et al. (2005) Infect Immun 73(10):6981-6989); Bac2A, a linear derivative of the bovine peptide bactenecin (Wu and Hancock (1999) Antimicrob Agents Ch 43:1274-1276); and the anti-fungal peptide EcAMP1 (Nolde et al. (2011) J Biol Chem 286(28):25145-25153) were produced with additional AEP recognition residues and used as the substrates.
To investigate the sequence requirements for in vitro cyclization, R1 was used as a model peptide. The recognition residues added to this model peptide were sequentially trimmed to determine the minimal requirements for AEP-mediated cyclization. The N- and C-terminal recognition residues were also substituted with alternate amino acids to determine if particular classes of residues were preferred for cyclization by these recombinant AEPs. The ability of activated AEPs (rOaAEP1b, rOaAEP3, rOaAEP4 and rOaAEP5) to cyclize the R1 peptide with varied flanking sequences was then tested in the cyclization assay described in the Materials and Methods (FIG. 10; Table 3).

In a further assay the test system is rOaAEP1b. Briefly: Cyclization assay with rOaAEP1b (MALDI MS). In kind it is biochemical, Oldenlandia affinis.
Assay [2] relates to target peptide-linker-ubiquitin-6xHis fusion protein. Briefly: AEP-mediated processing of target peptides fused to ubiquitin. In kind it is biochemical. As to conditions: kalata B1-ubiquitin 260 μg mL^−1, AEP 19.7 μg mL^−1 total protein, 22 h, SDS-PAGE/anti-6xHis Western blot. (Immunoblotting shows a protein as a band on a membrane.)
A short description of assay [3]: Protease activity against fluorogenic substrate Z-AAN-MCA. As to conditions: enzyme ~5 μg mL^−1 total protein, Z-AAN-MCA 100 μM, 37° C., 60 minutes. In kind it is biochemical. How it is done:
FIG. 15 is a graphical representation of the activity of recombinant O. affinis AEPs (˜5 μg mL^−1 total protein) and rhuLEG (1 μg mL^−1 total protein) over time against the fluorogenic substrate Z-AAN-MCA (100 μM). Activity is tracked at 1 minute intervals at 37° C. for 60 minutes using excitation and emission wavelengths of 360 and 460 nm respectively. A single representative experiment is shown. RFU, relative fluorescence units.
To assay activity of recombinant AEPs (rOaAEP1b, rOaAEP3, rOaAEP4 or rOaAEP5) against both internally-quenched and other fluorescent peptides, substrate and enzyme were diluted as appropriate in activity buffer (50 mM sodium acetate, 50 mM NaCl, 1 mM EDTA, 0.5 μM TCEP, pH 5). To assay activity of recombinant human legumain (rhuLEG; R&D systems) against the same substrates, the enzyme was first activated by incubation in 50 mM sodium acetate, 100 mM NaCl, pH 4 (4 μL buffer/1 μL enzyme) for 2 hours at 37° C. Substrates and activated rhuLEG were diluted in 50 mM acetate, 0.1% v/v triton X 100, 0.5 μM TCEP pH 5.5 or in 50 mM MES, 250 mM NaCl, pH 5 as required. Diluted enzyme and substrate were added to black, flat bottomed microtiter plates in a total assay volume of 100-200 μL. The change in fluorescence intensity over time was monitored on a SpectraMax M2 (Molecular Devices) using excitation/emission wavelengths of 320/420 nm (IQF peptides) or 360/460 nm (other fluorescent peptides).
AEP activity has traditionally been tracked by monitoring cleavage of the fluorescent substrate Z-AAN-MCA (where Z is carboxybenzyl; MCA is 7-amido-4-methylcoumarin) [Saska et al. (2007) supra; Rotari et al. (2001) Biol. Chem. 382:953-959]. Cleavage C-terminal to the Asn liberates the fluorophore which then fluoresces to report substrate cleavage. […] They are Ac-YVAD-CHO, which is routinely used to identify AEP activity (Hatsugai et al. (2004) Science 305(5685): 855-858) and Ac-STRN-CHO, which represents the P1-P4 residues of the C-terminal kB1 cleavage site. These traditional routes of identifying AEP activity will therefore likely be ineffective for identification of AEPs with cyclizing ability.

Where [4] appears, read: rOaAEP1b 12 μg mL^−1 total protein, 22 hours, peak area as percentage of total peak area of that peptide, average of three experiments.

Sequence of rOaAEP1b (as listed by the source): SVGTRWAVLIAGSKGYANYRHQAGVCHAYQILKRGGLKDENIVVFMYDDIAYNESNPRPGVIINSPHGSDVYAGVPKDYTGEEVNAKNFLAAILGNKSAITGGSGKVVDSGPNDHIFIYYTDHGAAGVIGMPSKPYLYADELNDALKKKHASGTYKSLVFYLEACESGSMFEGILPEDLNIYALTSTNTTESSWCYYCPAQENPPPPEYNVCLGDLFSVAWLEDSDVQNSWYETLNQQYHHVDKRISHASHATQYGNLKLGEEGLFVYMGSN

For “GLPGSGRGSCRSQCMRRHEDEPWRVQECVSQCRRRRGGGDTRNGLP (additional AEP recognition residues; EcAMP1) [anti-fungal peptide EcAMP1 with additional AEP recognition residues]”, the “cyclization of linear precursor peptide by recombinant AEPs” value (“cyclization of linear precursor peptide” below) in assay [1] was “efficiently cyclized”.

For the molecule GLPRLARIVVIRVARTRNGLP (Bac2A), the “cyclization of linear precursor peptide” value in assay [1] is given as “efficiently cyclized”.

For the molecule “GLPVFAEFLPLFSKFGSRMHILKSTRNGL (R1) [anti-malarial peptide R1 produced with additional AEP recognition residues]”, the “cyclization of linear precursor peptide” value in assay [1] was “efficiently cyclized”.

As for “GLPVFAEFLPLFSKFGSRMHILKSTRNGLP (rOaAEP1b-mediated processing) [SEQ ID NO: 26, R1 peptide derivative]”, in the assay with rOaAEP1b (setting [4]), the “Cyclic product (%)” value is 78.8% and the “Linear precursor (%)” value came to 21.2%.

Take “GLVFAEFLPLFSKFGSRMHILKNG (rOaAEP1b-mediated processing) [SEQ ID NO: 28, R1 peptide derivative]”: the “Linear precursor (%)” value in the assay with rOaAEP1b (setting [4]) was 100%.

For “GLVFAEFLPLFSKFGSRMHILKNGL (rOaAEP1b-mediated processing) [SEQ ID NO: 27, R1 peptide derivative]”, in the assay with rOaAEP1b (setting [4]), the “Cyclic product (%)” value turned out to be 92.9% and the “Linear precursor (%)” value came out at 7.1%.

For “KLVFAEFLPLFSKFGSRMHILKNGL (rOaAEP1b-mediated processing) [SEQ ID NO: 31, R1 peptide derivative]”, in the assay on rOaAEP1b (setting [4]), the “Cyclic product (%)” value amounted to 82.2% and the “Linear precursor (%)” value came to 17.8%.

In the case of “QLVFAEFLPLFSKFGSRMHILKNGL (rOaAEP1b-mediated processing) [SEQ ID NO: 30, R1 peptide derivative]”, in the assay with rOaAEP1b (setting [4]), the “Cyclic product (%)” value stood at 93.1% and the “Linear precursor (%)” value turned out to be 6.9%.

Regarding “VFAEFLPLFSKFGSRMHILK [native R1 peptide, reference compound]”, the “processing/cyclization by rOaAEP1b” value with rOaAEP1b (MALDI MS) is listed as “No processing”.

As to “VFAEFLPLFSKFGSRMHILKNGL (rOaAEP1b-mediated processing) [SEQ ID NO: 29, R1 peptide derivative]”, in the assay on rOaAEP1b (setting [4]), the “Cyclic product (%)” value is reported as 49.6%, the “Linear precursor (%)” value turned out to be 27.7% and the “Linear product (%)” value was determined as 27.7%.

As for “rOaAEP5: recombinant Oldenlandia affinis asparaginyl endopeptidase OaAEP5”, the “proportion of fusion protein enzymatically processed (loss of precursor)” value (shortened to “proportion … (loss of precursor)”) in assay [2] is given as “the bulk of the precursor was being enzymatically processed”. In addition, in assay [3], the “activity against Z-AAN-MCA” value is “nor rOaAEP1b, rOaAEP3, rOaAEP4 or rOaAEP5 (FIG. 15) had detectable activity”.

B1: rOaAEP3: recombinant Oldenlandia affinis asparaginyl endopeptidase OaAEP3 (protein)
chain: MVRYLAGAFQVVLLVVILSDIAISEERTDGYLKLPTEVSRFFRTPEQSSDGGDDSIGTRWAVLIAGSKGYDNYRHQADVCHAYQILKRGGLKDENIVVFMYDDIAYNESNPRPGVIINSPHGSDVYAGVPKDYTGDEVNAKNFLAAILGNKSAITGGSGKVVDSGPNDHIFIYYTDHGAPGVIGMPSKPYLYADELNDALRKKHASGTYKSMVFYLEACEAGSMFDGLLPDGLNIYALTASNTTEGSWCYYCPGQDAGPPPEYSVCLGDFFSIAWLEDSDVHNLRSETLNQQYHNVKNRISYASHATQYGDLKRGVEGLFLYLGSNPENDNYTFVDDNVVRPSSKAVNQRDADLVHFWEKFRKAPEGSSKKEEAQKQILEAMSHRVHIDSSINLIGKLLFGIEKGHKILTAVRSAGHPLVDDWACLRSLVRTFETHCGSLSQYGMKHTRTLANICNAGITEEQMAEAASQACVSIPSNPWSSHDGGFSA
modifications: Oldenlandia affinis OaAEP3
On to B1, for which the “proportion … (loss of precursor)” value in assay [2] is on record as “the bulk of the precursor was being enzymatically processed”. Besides, the “activity against Z-AAN-MCA” value in assay [3] was “nor rOaAEP1b, rOaAEP3, rOaAEP4 or rOaAEP5 (FIG. 15) had detectable activity”.

B2: rOaAEP4: recombinant Oldenlandia affinis asparaginyl endopeptidase OaAEP4 (protein)
chain: MVRYPAGAVLLLVVLSVVAVDGARDGYLKLPSEVSDFFRPRNTNDGDDSVGTRWAVLLAGSNGYWNYRHQADLCHAYQILKRGGLKDENIVVFMYDDIAYNEENPRPGVIINSPHGSDVYAGVPKDYTGDEVNAKNFLAAILGNKSAITGGSGKVVDSGPNDHIFIYYTDHGAPGVIGMPSKPYLYADELNDALRKKHASGTYKSMVFYLEACEAGSMFDGLLPDGLNIYALTASNTTEGSWCYYCPGQDAGPPPEYSVCLGDFFSIAWLEDSDVHNLRSETLNQQYHNVKNRISYASHATQYGDLKRGVEGLFLYLGSNPENDNYTFVDDNVVRPSSKAVNQRDADLVHFWEKFRKAPEGSSKKEEAQKQILEAMSHRVHIDSSINLIGKLLFGIEKGHKILTAVRSAGHPLVDDWACLRSLVRTFETHCGSLSQYGMKHTRTLANICNAGITEEQMAEAASQACVSIPSNPWSSHDGGFSA
modifications: OaAEP4 aa
notes: recombinant Oldenlandia affinis asparaginyl endopeptidase OaAEP4
Consider B2, for which, in assay [2], the “proportion … (loss of precursor)” value is on record as “a smaller proportion of the precursor protein was processed”. Moreover, the “activity against Z-AAN-MCA” value in assay [3] is “nor rOaAEP1b, rOaAEP3, rOaAEP4 or rOaAEP5 (FIG. 15) had detectable activity”.
